In US20260250524A1, “METAL-PHENOLIC NANOPATTERNS AND METHODS OF MAKING AND USING THE SAME” (NORTHWESTERN UNIVERSITY, priority 2023, published 2026):

Assay: Solubility of polyphenols in water
Assay type: physicochemical
Source text: Methods of the disclosure can be used to design functional nanopatterns with tunable properties (e.g., mechanical properties that can be varied based on the strength of coordination between the metal ion and polyphenol). For example, the stability and mechanical properties of nanopatterns can be varied based on the strength of coordination between the metal ion and the polyphenol. […] The polymeric, multitopic structure of large polyphenols like TA can provide greater binding affinity to various substrates. These polyphenols also have other different characteristics, such as water solubility. […] This can broaden the range of ink concentrations that are suitable for tip-directed patterning.
Other inks based on different polyphenols (GA, ECG, and EGCG) were prepared according to similar protocols. […] However, ECG had limited solubility of <1 mg/mL in water. Therefore, 0.5 mg/mL was used for ECG-based inks. Unless otherwise noted, the concentration of polyphenol was 5 mg mL^−1 and the molar ratio of polyphenol to metal ion was 1:1. For GA-based inks, the molar ratio of GA to metal ion was 10:1. For the EGCG-Ni ink, the molar ratio of EGCG to Ni was 5:1. These molar ratios were determined after considering the solubility of each metal salt and the molecular weight of each polyphenol.

SMILES | solubility (in water) [µg/mL] | water solubility relative to GA, ECG, and EGCG (comparison in words)
O=C(O[C@@H]1Cc2c(O)cc(O)cc2O[C@@H]1c1ccc(O)c(O)c1)c1cc(O)c(O)c(O)c1 [ECG, epicatechin gallate] | < 1000 | 
O=C(OC[C@H]1O[C@@H](OC(=O)c2cc(O)c(O)c(OC(=O)c3cc(O)c(O)c(O)c3)c2)[C@H](OC(=O)c2cc(O)c(O)c(OC(=O)c3cc(O)c(O)c(O)c3)c2)[C@@H](OC(=O)c2cc(O)c(O)c(OC(=O)c3cc(O)c(O)c(O)c3)c2)[C@@H]1OC(=O)c1cc(O)c(O)c(OC(=O)c2cc(O)c(O)c(O)c2)c1)c1cc(O)c(O)c(OC(=O)c2cc(O)c(O)c(O)c2)c1 [TA, Tannic acid] |  | substantially higher solubility
